The structures appear in SMILES notation. Like-named read-outs stand apart in the source and are kept apart here. A value given as a limit tells only on which side of the number the result lay.

Data set [1] in a line: predicted human absorption, clearance and bioavailability. As for the experimental part:
Based on in vitro data, the predicted human oral bioavailability is 70%. The observed oral bioavailability in several animal species is in the range 40% to 60%.
Therefore, a conservative estimate is that Cmax following an IV infusion over 20 minutes is less than 2-fold higher compared to an oral dose, after correcting for F.

Data set [2] relates to renal fibrosis in a UUO model in mice. The note with it: mice (Bunyard 2019); cited from earlier work.
Data set [3] can be described thus: excipient compatibility study. It counts as physicochemical. The source says:
In some embodiments, the diluent is a sugar or sugar-containing, except mannitol. For example, the diluent may be lactose, dextrin, glucose, sucrose, sorbitol. In some embodiments, the diluent is microcrystalline cellulose.
In some embodiments, the lubricant/glidant is glyceryl behenate.

Data set [4] can be described thus: Example 1, first clinical study: pharmacokinetics in healthy subjects. The note with it: for half-life / Tmax: in vivo; for half-life: read-out: geometric mean terminal half-life. It counts as in vivo, human. The procedure:
This study is in two parts—part 1 involves testing a single ascending dose, whilst part 2 involves testing multiple ascending doses.
Part 1 comprises a Screening Period of a maximum of 6 weeks. This is followed by a Treatment Period during which subjects are resident at the Clinical Unit from 1 day before investigational medicinal product (IMP) administration (Day −1) until at least 72 hours after IMP administration (Day 4). Subjects receive a single oral dose of AZD5055 or placebo on Day 1. This is followed by a Follow-up Visit within 6±1 day after the IMP dose.
Part 2 comprises a Screening Period of a maximum of 6 weeks. This is followed by a treatment period during which subjects are resident at the Clinical Unit from 1 day before IMP administration (Day −1) until at least 72 hours after the last dose given on Day 16 (Day 19). Subjects are dosed for a total of 15 days and receive a single once daily morning dose of AZD5055 or placebo on Day 1 and on Days 3 through Day 16, with no dosing on Day 2. This is followed up a Follow-up Visit within 6±1 day after the IMP dose, and an additional Follow-up Visit within 29±2 days after the last IMP dose.
For cohorts with QD dosing regimens, the Screening Period is followed by a Treatment Period during which subjects are resident at the Clinical Unit from 1 day before IMP administration (Day −1) until at least 72 hours after the last dose given on Day 16 (Day 19). Subjects are dosed for a total of 15 days, receiving a single QD morning dose of AZD5055 or placebo on Day 1 and on Days 3 through Day 16.
For cohorts with BID dosing regimens, the Screening Period is followed by a Treatment Period during which subjects are resident at the Clinical Unit from 1 day before IMP administration (Day −1) until at least 72 hours after the last dose given on Day 16 (Day 19).
Subjects are dosed for a total of 15 days, receiving a single morning dose of AZD5055 or placebo on Day 1 and Day 16, and repeated BID dosing on Day 3 through Day 15, 12 hours (±30 minutes) apart.
The study was conducted in healthy male and healthy female subjects of non-childbearing potential with suitable veins for cannulation or repeated venipuncture. […] Also, the subjects were aged 18 to 55 years inclusive for men and women in Part 1 and only men in Part 2. For female subjects in Part 2, the age range was 18 to 49 years inclusive.
In Part 1 of the study, 3 dose levels of AZD5055 were investigated in 3 cohorts. Each cohort included 8 subjects. Within each cohort, 6 subjects were randomized to receive AZD5055, and 2 subjects were randomized to receive placebo. In Part 2 of the study, 3 dose levels of AZD5055 were investigated in 3 cohorts. In each cohort, 9 subjects were randomized to receive AZD5055, and 3 subjects were randomized to receive placebo.
Primary PK parameters: Cmax, AUCinf, and AUClast; secondary PK parameters: including but not limited to tmax, AUC (0-12) or AUC (0-24) (the one not being the primary parameter), t1/2λz, MRTinf, CL/F, Vz/F, Rac, TCP, Ae(t1-t2), fe (t1-t2), and CLR.
No formal statistical hypothesis testing was performed. The analyses of safety, tolerability, PK, and PD data was summarized descriptively by treatment/dose/study day separately using appropriate descriptive statistics including tables, listings, and graphs, as appropriate. Preliminary dose proportionality of AZD5055 after single dose (Day 1) in Part 1 and 2 and multiple dose (Day 16) in Part 2 was assessed graphically and was analyzed using the power model approach with the logarithm of PK parameters (AUC and Cmax on Day 1) and (AUC(0-τ) and Cmax on Day 16) as the dependent variable and the logarithm of the dose as the independent variable. For data collected in Part 2, the time dependency of the PK was evaluated by comparing AUC(0-τ) (Day 16) with AUC (Day 1) and accumulation was evaluated by comparing AUC(0-τ) (Day 16) with AUC(0-τ) (Day 1) and Cmax (Day 16) with Cmax (Day 1). […]

Data set [5] has as its system porcupine (PORCN). The note with it: statement in words; cited from earlier work.

With `Cc1cc(-c2nccc3c2ccn3CC(=O)Nc2ccc(-c3cnccn3)cn2)ccn1` [AZD5055, 2-[4-(2-methyl-4-pyridyl)pyrrolo[3,2-c]pyridin-1-yl]-N-(5-pyrazin-2-yl-2-pyridyl)acetamide], in data set [1] (conservative estimate, after correcting for F), the “Cmax after 20-minute IV infusion relative to oral dose” value is “less than 2 fold”. Moreover, in data set [1] (estimated from tmax of 1 hour, oral), the “dose absorbed within 20 minutes” value is on record as “approximately 75%”. For the same compound, the “renal fibrosis, UUO model” value in data set [2] is reported as “reduces”. The “degradation products with silicon dioxide and magnesium stearate” value in data set [3] (glidant and lubricant respectively) is “additional amounts of degradation products were identified”. For the same compound, in data set [3] (mannitol as diluent), the compatibility with mannitol result is on record as “not compatible” and the “degradation products with mannitol” value is recorded as “additional amounts of degradation products were identified”. Also, the “compatibility with silicon dioxide and magnesium stearate” value in data set [3] (silicon dioxide as glidant, magnesium stearate as lubricant) is “not compatible”. The “dose proportionality of exposure” value in data set [4] (5 to 40 mg, single and multiple dose) is listed as “increased approximately proportionally”. For the same compound, the half-life (usually the time in which the quantity being followed falls by half) in data set [4] (human, po, multiple daily administration) was in the range of 12.2 to 17.2 h. In addition, in data set [4] (human, po, multiple daily doses of 5 to 20 mg, read-out: tmax (medians)), the time of peak concentration (Tmax) (usually the time from dosing to the highest level) is 1 to 1.3 h. Moreover, in data set [4] (human, po, observed, oral dose, read-out: tmax (time to Cmax)), the Tmax is 1 h. For the same compound, in data set [4] (human, po, single administration), the half-life was 9.7 to 11.4 h. Besides, the dose excreted in data set [4] (human, urine, po, percent of dose administered, read-out: dose recovered unchanged in urine) is < 2.3%. The “between-subject variability in Cmax” value in data set [4] (low) was < 25%. Further, in data set [4] (oral), the decline of concentrations result was “declined in a bi-phasic manner” and the “renal clearance share of total clearance” value was “small share of AZD5055 total clearance”. The absorption result in data set [4] (oral suspension, single ascending doses of 7 to 40 mg) is “rapidly absorbed”. In addition, in data set [4] (repeat daily administration), the accumulation result is given as “Little to moderate accumulation”. Also, in data set [5], the “inhibition of the intracellular enzyme porcupine (PORCN)” value is “potent, and selective inhibitor”.

The values above are taken from patent US20260345593A1, “ORAL FORMULATION OF N-PYRIDINYL ACETAMIDE DERIVATIVE FOR TREATING INTERSTITIAL LUNG DISEASE” (AstraZeneca AB, priority 2022, published 2026).
